Measured values taken from patent US8063077B2, “Factor Xa inhibitors” (Millennium Pharmaceuticals, Inc., priority 2006, dated 2011).

These molecules were tested against T1, human plasma protein factor Xa (Homo sapiens, UniProt P00742) (assay: Factor Xa IC50 determination, cleavage of paranitroanilide substrate S-2765). Conditions: factor Xa 1 nM, S2765 100 μM, Tris buffered saline pH 7.4, 5% DMSO.
T1 construct: The human plasma protein factor Xa was purchased from Haematologic Technologies; purchased Haematologic Technologies (Essex Junction, Vt.); host or cells: human plasma
Type: biochemical
Text: This example illustrates methods for evaluating the compounds of the invention, along with results obtained for such assays. The in vitro and in vivo human Factor Xa activities of the inventive compounds can be determined by various procedures known in the art, such as a test for their ability to inhibit the activity of human plasma Factor Xa. […] The IC50 value is the concentration (in nM) of the compound required to provide 50% inhibition of human Factor Xa proteolytic activity.
An in vitro assay for detecting and measuring inhibition activity against Factor Xa is as follows:
The substrate S-2765 (Z-D-Arg-Gly-Arg-pNA•HCl) was obtained from Diapharma (West Chester, Ohio).
The human plasma protein factor Xa was purchased from Haematologic Technologies (Essex Junction, Vt.).
All assays, which are performed in 96-well microtiter plates, measure proteolytic activity of the enzyme (factor Xa) by following cleavage of a paranitroanilide peptide substrate. The assay buffer used for proteolytic assays was Tris buffered saline (20 mM Tris, 150 mM NaCl, 5 mM CaCl2, 0.1% Bovine serum albumin (BSA), 5% Dimethly Sulfoxide (DMSO) pH 7.4). In a 96-well microtiter plate, inhibitor was serially diluted to give a range of final concentrations from 0.01 nM to 10 μM. Duplicate sets of wells were assayed and control wells without inhibitor were included. Enzyme was added to each well, (factor Xa concentration=1 nM), the plate was shaken for 5 seconds and then incubated for 5 minutes at room temperature. S2765 was added (100 μM final) and the plate was shaken for 5 seconds (final volume in each well was 200 μl). The degree of substrate hydrolysis was measured at 405 nm on a Thermomax plate reader (Molecular Devices, Sunnyvale, Calif.) for 2 minutes. The initial velocities of substrate cleavage (mOD/min), for each range of inhibitor concentrations, were fitted to a four parameter equation using Softmax data analysis software. The parameter C, derived from the resulting curve-fit, corresponded to the concentration for half maximal inhibition (IC50).

T1 sequence (P00742 235-488 limits assumed): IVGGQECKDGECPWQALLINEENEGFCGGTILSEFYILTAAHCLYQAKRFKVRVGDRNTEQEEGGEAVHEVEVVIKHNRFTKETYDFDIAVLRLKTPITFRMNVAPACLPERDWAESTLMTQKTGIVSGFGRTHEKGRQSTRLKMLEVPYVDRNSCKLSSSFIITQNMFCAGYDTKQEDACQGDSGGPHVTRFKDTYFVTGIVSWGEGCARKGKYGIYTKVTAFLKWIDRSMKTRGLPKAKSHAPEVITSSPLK
T1 sequence (P00742 41-179 partner limits assumed): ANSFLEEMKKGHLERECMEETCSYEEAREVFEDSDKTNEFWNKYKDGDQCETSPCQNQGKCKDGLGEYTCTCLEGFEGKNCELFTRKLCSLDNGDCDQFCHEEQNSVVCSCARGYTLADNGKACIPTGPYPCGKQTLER

IC50 [nM] | SMILES
≤ 100 | COc1cccn(-c2ccc(-n3cnc(CNC(=O)c4ccc(Cl)s4)c3)cc2)c1=O [Compound 41, 5-chloro-N-((1-(4-(3-methoxy-2-oxopyridin-1(2H)-yl)phenyl)-1H-imidazol-4-yl)methyl)thiophene-2-carboxamide]
≤ 100 | O=C(NCc1cn(-c2ccc(-n3ccncc3=O)cc2)cn1)c1ccc(Cl)s1 [Compound 12, 5-Chloro-N-((1-(4-(2-oxopyrazin-1(2H)-yl)phenyl)-1H-imidazol-4-yl)methyl)thiophene-2-carboxamide]
100 to 500 | O=C(NCc1cn(-c2ccc(-n3ccccc3=O)cc2O)cn1)c1ccc(Cl)s1 [Compound 28, 5-Chloro-N-((1-(2-hydroxy-4-(2-oxopyridin-1(2H)-yl)phenyl)-1H-imidazol-4-yl)methyl)thiophene-2-carboxamide]
≤ 100 | C[S+]([O-])c1nc(CNC(=O)c2ccc(Cl)s2)cn1-c1ccc(-n2cc(F)ccc2=O)cc1 (stereo not shown) [Compound 64, 5-chloro-N-((1-(4-(5-fluoro-2-oxopyridin-1(2H)-yl)phenyl)-2-(methylsulfinyl)-1H-imidazol-4-yl)methyl)thiophene-2-carboxamide]
≤ 100 | O=C(NCc1cn(-c2ccc(-n3ccc(=O)[nH]c3=O)cc2)cn1)c1ccc(Cl)s1 [Compound 47, 5-chloro-N-((1-(4-(2,4-dioxo-3,4-dihydropyrimidin-1(2H)-yl)phenyl)-1H-imidazol-4-yl)methyl)thiophene-2-carboxamide]
≤ 100 | Cn1c(=O)ccn(-c2ccc(-n3cnc(CNC(=O)c4ccc(Cl)s4)c3)cc2)c1=O [Compound 49, 5-chloro-N-((1-(4-(3-methyl-2,4-dioxo-3,4-dihydropyrimidin-1(2H)-yl)phenyl)-1H-imidazol-4-yl)methyl)thiophene-2-carboxamide]
100 to 500 | O=C(NCc1cn(-c2ccc(N3CC[S+]([O-])CC3=O)cc2)cn1)c1ccc(Cl)s1 (stereo not shown) [Compound 17, 5-Chloro-N-((1-(4-(1,3-dioxothiomorpholino)phenyl)-1H-imidazol-4-yl)methyl)thiophene-2-carboxamide]
≤ 100 | C#Cc1ccc(C(=O)NCc2cn(-c3ccc(-n4ccccc4=O)cc3)cn2)s1 [Compound 32, 5-Ethynyl-N-((1-(4-(2-oxopyridin-1(2H)-yl)phenyl)-1H-imidazol-4-yl)methyl)thiophene-2-carboxamide]
≤ 100 | CC(=O)/N=c1\ccccn1-c1ccc(-n2cnc(CNC(=O)c3ccc(Cl)s3)c2)cc1 [Compound 36, (E)-N-((1-(4-(2-(acetylimino)pyridin-1(2H)-yl)phenyl)-1H-imidazol-4-yl)methyl)-5-chlorothiophene-2-carboxamide]
≤ 100 | CS(=O)(=O)c1nc(CNC(=O)c2ccc(Cl)s2)cn1-c1ccc(-n2cccc(F)c2=O)cc1 [Compound 67, 5-chloro-N-((1-(4-(3-fluoro-2-oxopyridin-1(2H)-yl)phenyl)-2-(methylsulfonyl)-1H-imidazol-4-yl)methyl)thiophene-2-carboxamide]
≤ 100 | NC(=O)/N=c1\ccccn1-c1ccc(-n2cnc(CNC(=O)c3ccc(Cl)s3)c2)cc1 [Compound 61, N-((1-(4-(2-(carbamoylimino)pyridin-1(2H)-yl)phenyl)-1H-imidazol-4-yl)methyl)-5-chlorothiophene-2-carboxamide]
≥ 500 | Cn1cc(Cl)cc1C(=O)NCc1cn(-c2ccc(-n3ccccc3=O)cc2)cn1 [Compound 37, 4-chloro-1-methyl-N-((1-(4-(2-oxopyridin-1(2H)-yl)phenyl)-1H-imidazol-4-yl)methyl)-1H-pyrrole-2-carboxamide]
≥ 500 | O=C(NCc1cn(-c2ccc(-n3ccccc3=O)cc2)cn1)c1ccc2cc[nH]c2c1 [Compound 31, N-((1-(4-(2-oxopyridin-1(2H)-yl)phenyl)-1H-imidazol-4-yl)methyl)-1H-indole-6-carboxamide]
≤ 100 | C/N=c1\ccccn1-c1ccc(-n2cnc(CNC(=O)c3ccc(Cl)s3)c2)cc1 [Compound 34, (E)-5-chloro-N-((1-(4-(2-(methylimino)pyridin-1(2H)-yl)phenyl)-1H-imidazol-4-yl)methyl)thiophene-2-carboxamide]
≤ 100 | COc1ccc(/N=c2\ccccn2-c2ccc(-n3cnc(CNC(=O)c4ccc(Cl)s4)c3)cc2)cc1 [Compound 35, (E)-5-chloro-N-((1-(4-(2-(4-methoxyphenylimino)pyridin-1(2H)-yl)phenyl)-1H-imidazol-4-yl)methyl)thiophene-2-carboxamide]
≥ 500 | CCN1CCN(c2ccc(-n3cnc(CNC(=O)c4ccc(Cl)s4)c3)cc2)C(=O)C1=O [Compound 60, 5-chloro-N-((1-(4-(4-ethyl-2,3-dioxopiperazin-1-yl)phenyl)-1H-imidazol-4-yl)methyl)thiophene-2-carboxamide]
≤ 100 | O=C(NCc1cn(-c2ccc(-n3ccccc3=O)c(F)c2)cn1)c1ccc(Cl)s1 [Compound 40, 5-chloro-N-((1-(3-fluoro-4-(2-oxopyridin-1(2H)-yl)phenyl)-1H-imidazol-4-yl)methyl)thiophene-2-carboxamide]
≤ 100 | O=C(NCc1cn(-c2ccc(N3CCCNC3=O)cc2)cn1)c1ccc(Cl)s1 [Compound 18, 5-Chloro-N-((1-(4-(2-oxo-tetrahydropyrimidin-1(2H)-yl)phenyl)-1H-imidazol-4-yl)methyl)thiophene-2-carboxamide]
≤ 100 | O=C(NCc1cn(-c2ccc(-n3ccnc(O)c3=O)cc2)cn1)c1ccc(Cl)s1 [Compound 58, 5-chloro-N-((1-(4-(3-hydroxy-2-oxopyrazin-1(2H)-yl)phenyl)-1H-imidazol-4-yl)methyl)thiophene-2-carboxamide]
≤ 100 | C[S+]([O-])c1nc(CNC(=O)c2ccc(Cl)s2)cn1-c1ccc(-n2cccc(F)c2=O)cc1 (stereo not shown) [Compound 66, 5-chloro-N-((1-(4-(3-fluoro-2-oxopyridin-1(2H)-yl)phenyl)-2-(methylsulfinyl)-1H-imidazol-4-yl)methyl)thiophene-2-carboxamide]
≤ 100 | O=C(NCc1cn(-c2ccc(N3CCCCC3=O)cc2)cn1)c1ccc(Cl)s1 [Compound 52, 5-chloro-N-((1-(4-(2-oxopiperidin-1-yl)phenyl)-1H-imidazol-4-yl)methyl)thiophene-2-carboxamide]
100 to 500 | O=C(NCc1cn(-c2ccc(-n3ccc(O)cc3=O)cc2)cn1)c1ccc(Cl)s1 [Compound 46, 5-chloro-N-((1-(4-(4-hydroxy-2-oxopyridin-1(2H)-yl)phenyl)-1H-imidazol-4-yl)methyl)thiophene-2-carboxamide]
≤ 100 | CS(=O)(=O)c1nc(CNC(=O)c2ccc(Cl)s2)cn1-c1ccc(-n2cc(F)ccc2=O)cc1 [Compound 65, 5-chloro-N-((1-(4-(5-fluoro-2-oxopyridin-1(2H)-yl)phenyl)-2-(methylsulfonyl)-1H-imidazol-4-yl)methyl)thiophene-2-carboxamide]
≤ 100 | C[S+]([O-])c1cc(-n2ccccc2=O)ccc1-n1cnc(CNC(=O)c2ccc(Cl)s2)c1 (stereo not shown) [Compound 23, 5-chloro-N-((1-(2-(methylsulfinyl)-4-(2-oxopyridin-1(2H)-yl)phenyl)-1H-imidazol-4-yl)methyl)thiophene-2-carboxamide]
≤ 100 | Cc1cccc(=O)n1-c1ccc(-n2cnc(CNC(=O)c3ccc(Cl)s3)c2)cc1 [Compound 14, 5-chloro-N-((1-(4-(6-methyl-2-oxopyridin-1(2H)-yl)phenyl)-1H-imidazol-4-yl)methyl)thiophene-2-carboxamide]
